The values that follow come from patent US5043340A, “Derivatives of 4-desacetyl VLB C-3 carboxhydrazide” (Eli Lilly and Company, priority 1990, dated 1991).

The subject of data set [1] is experimental malignancies. To be noted: in vivo; cited from earlier work.
The nature of a further data set: pKa. Type of data set: physicochemical. As to conditions: for pKa (first value) / pKa (second value) / pKa (third value): 66% DMF.
The subject of data set [2] is human leukemic cells (CCRF-CEM cell line). Put plainly: CCRF-CEM Cytotoxicity Assay (72 h, Coulter particle counter). As to conditions: 37° C., read-out: IC50 (concentration giving 50% growth inhibition). Type of data set: cell-based. As to the method:
The CEM cells were grown in RPMI 1640 media (MA Bioproducts) at 37° C. in humidified atmospheric conditions of 95% air and 5% CO2. The cells were grown in static suspension and maintained in log growth phase at a concentration of 3-7×10^5 cells/ml. The cells were dispersed in wells at a concentration of 4.8×10^4 /well. The drug was dissolved in dimethyl sulfoxide and was added at different dilutions to the cluster plates (wells). The cluster plates were incubated at 37° C. for 72 hours. After 72 hours the wells were read using a ZBI Coulter particle counter. Table 3 below gives the results of such testing of several compounds represented by Formula I above. In the table, Column 1 gives the name of the compound and Column 2 gives the IC50 (concentration giving 50% growth inhibition) in μg/ml.

For data set [3], the system named is P3/UCLA lung adenocarcinoma xenografts. The data set is described as follows: in vivo test against xenografts of P3/UCLA lung adenocarcinoma in female nude mice. As to conditions: days 2, 5 and 8, 28-day results. The protocol:
The compounds were tested in vivo against xenografts of P3/UCLA lung adenocarcinoma in female nude mice. The test was begun by implanting each mouse with 10^7 P3/UCLA tumor cells, subcutaneously. On each of days 2, 5, and 8 after implantation, each mouse was injected with a conjugate or a compound in physiological buffered saline. Control mice were injected with saline only. The doses of conjugate or of vinca intermediate (based on vinca hydrazide content) are indicated below. The size of the tumors induced by implantation was measured on days 14, 21, and 28 after implantation. Each treatment group consisted of five mice.

Data set [4] relates to human lung adenocarcinoma cells (P3/UCLA cell line). The data set is described as follows: P3/UCLA - GIEMSA ASSAY (5 days). Type of data set: cell-based. To be noted: 120 h, 37° C., free compound, read-out: IC50 (concentration giving 50% growth inhibition).
The mark [5] stands for this setting: solvent not given, read-out: pKa (first value).
Setting [6] is: 66% dmf, read-out: pKa (second value).
Where [7] appears, read: 66% dmf, read-out: pKa (first value).
The mark [8] stands for this setting: 66% dmf, read-out: pKa (third value).

Where a name gives a salt, the structure may show the parent alone. Read-outs that look alike come from different tables or passages of the source.

With `CCC1(O)CN2CCc3c([nH]c4ccccc34)C(C(=O)OC)(c3cc4c(cc3OC)N(C)C3C(O)(C(=O)OC)CC5(CC)C=CCN6CCC43C65)CC(C2)C1O` (stereo not shown) [4-desacetoxy-3'-hydroxyvinblastine], the “found active in the treatment of experimental malignancies in animals” value (“found active in the treatment” below) in data set [1] was “active”.

Take `CCC1(O)CC2CN(CCc3c([nH]c4ccccc34)C(C(=O)OC)(c3cc4c(cc3OC)N(C)C3C(O)(C(=O)OC)CC5(CC)C=CCN6CCC43C65)C2)C1` (stereo not shown) [4-desacetoxyvinblastine]: the “found active in the treatment” value in data set [1] is given as “active”. On to `CC(=O)CCCC(=O)NCCC(=O)O` [6-[(2-Carboxyethyl)amino]-2,6-dioxohexane], for which, in “pKa” (setting [5]), the pKa came to 7.1.

With `CCC1(O)CC2CN(CCc3c([nH]c4ccccc34)C(C(=O)OC)(c3cc4c(cc3OC)N(C)C3C(O)(C(=O)NN=C(C)CCCC(=O)O)C(O)C5(CC)C=CCN6CCC43C65)C2)C1` (stereo not shown) [Example 2, 4-Desacetyl VLB C-3 N^2-(4-carboxy-1-methylbutylidene)carboxhydrazide], in the data set “pKa”, the “pKa (first value)” value turned out to be 5.1, the “pKa (second value)” value is on record as 6.6 and the “pKa (third value)” value amounted to 7.7.

With `CCC1(O)CC2CN(CCc3c([nH]c4ccccc34)C(C(=O)OC)(c3cc4c(cc3OC)N(C)C3C(O)(C(=O)NN=C(C)CCCCC(=O)O)C(O)C5(CC)C=CCN6CCC43C65)C2)C1` (stereo not shown) [Example 4, 4-Desacetyl VLB C-3 N^2-(5-carboxy-1-methylpentylidene)carboxhydrazide], in “pKa”, the “pKa (first value)” value came to 5.3 and the “pKa (third value)” value was found to be 8.1. Moreover, the pKa in “pKa” (setting [6]) came to 7. Turning to `CCC1(O)CC2CN(CCc3c([nH]c4ccccc34)C(C(=O)OC)(c3cc4c(cc3OC)N(C)C3C(O)(C(=O)NN=C(C)CCCCC(=O)O)C(O)C5(CC)C=CCN6CCC43C65)C2)C1` (stereo not shown) [Example 5, 4-Desacetyl VLB C-3 N^2-(5-carboxy-1-methylpentylidene)carboxhydrazidesulfate salt], the IC50 in data set [2] worked out at 0.2 µg/mL. As to `CCC1(O)CC2CN(CCc3c([nH]c4ccccc34)C(C(=O)OC)(c3cc4c(cc3OC)N(C)C3C(O)(C(=O)NN=C(C)CCCC(=O)NCCC(=O)O)C(O)C5(CC)C=CCN6CCC43C65)C2)C1` (stereo not shown) [Example 6, 4-Desacetyl VLB C-3 N^2-(5-[(2-carboxyethyl)amino]-1-methyl-5-oxopentylidene)carboxhydrazide], the pKa in “pKa” (setting [7]) is 5.1; in the data set “pKa” (setting [6]), 6.6; in the data set “pKa” (setting [8]) it was 7.3. Regarding `CCC1(O)CC2CN(CCc3c([nH]c4ccccc34)C(C(=O)OC)(c3cc4c(cc3OC)N(C)C3C(O)(C(=O)NN=C(C)CCCC(=O)NCCC(=O)O)C(O)C5(CC)C=CCN6CCC43C65)C2)C1` (stereo not shown) [Example 7, 4-Desacetyl VLB C-3 N^2-(5-[(2-carboxyethyl)amino]-1-methyl-5-oxopentylidene)carboxhydrazide sulfate salt], the IC50 in data set [2] was 0.095 µg/mL. For the molecule `CCC1(O)CC2CN(CCc3c([nH]c4ccccc34)C(C(=O)OC)(c3cc4c(cc3OC)N(C)C3C(O)(C(=O)NN=C(C)CCCCC(=O)NCCC(=O)O)C(O)C5(CC)C=CCN6CCC43C65)C2)C1` (stereo not shown) [Example 8, 4-Desacetyl VLB C-3 N^2-(6-[(2-carboxyethyl)amino]-1-methyl-6-oxohexylidene)carboxhydrazide], the pKa in “pKa” (setting [7]) was determined as 5; in “pKa” (setting [6]), 6.2; in the data set “pKa” (setting [8]), 7.8. For the molecule `CCC1(O)CC2CN(CCc3c([nH]c4ccccc34)C(C(=O)OC)(c3cc4c(cc3OC)N(C)C3C(O)(C(=O)NN=C(C)CCCCC(=O)NCCC(=O)O)C(O)C5(CC)C=CCN6CCC43C65)C2)C1` (stereo not shown) [Example 9, 4-Desacetyl VLB C-3 N^2-(6-[(2-carboxyethyl)amino]-1-methyl-6-oxohexylidene)carboxhydrazide sulfate salt], the “% Inhibition” value in data set [3] (1.00 mg/kg (based on vinca hydrazide content)) worked out at 43%; in data set [3] (2.00 mg/kg (based on vinca hydrazide content)) it was 35%. For the same molecule, the IC50 in data set [4] stood at 0.043 µg/mL; in data set [2], 0.068 µg/mL.

Regarding `CCC1(O)CC2CN(CCc3c([nH]c4ccccc34)C(C(=O)OC)(c3cc4c(cc3OC)N(C)C3C(O)(C(=O)NNC(C)CCC(=O)O)C(O)C5(CC)C=CCN6CCC43C65)C2)C1` (stereo not shown) [Example 10, 4-Desacetyl VLB C-3 N^2-(3-carboxy-1-methylpropyl)carboxhydrazide], in “pKa”, the “pKa (first value)” value was determined as 5.3, the “pKa (second value)” value is reported as 6.9 and the “pKa (third value)” value worked out at 7.9. Regarding `CCC1(O)CC2CN(CCc3c([nH]c4ccccc34)C(C(=O)OC)(c3cc4c(cc3OC)N(C)C3C(O)(C(=O)NNC(C)CCC(=O)O)C(O)C5(CC)C=CCN6CCC43C65)C2)C1` (stereo not shown) [Example 11, 4-Desacetyl VLB C-3 N^2-(3-carboxy-1-methylpropyl)carboxhydrazide sulfate salt], the IC50 in data set [2] was 0.1 µg/mL. For `CCC1(O)CC2CN(CCc3c([nH]c4ccccc34)C(C(=O)OC)(c3cc4c(cc3OC)N(C)C3C(O)(C(=O)NNC(C)CCCCC(=O)O)C(O)C5(CC)C=CCN6CCC43C65)C2)C1` (stereo not shown) [Example 13, 4-Desacetyl VLB C-3 N^2-(5-carboxy-1-methylpentyl)carboxhydrazide sulfate salt], the IC50 in data set [2] came to 0.4 µg/mL. With `CCC1(O)CC2CN(CCc3c([nH]c4ccccc34)C(C(=O)OC)(c3cc4c(cc3OC)N(C)C3C(O)(C(=O)NNC(C)CCCC(=O)NCCC(=O)O)C(O)C5(CC)C=CCN6CCC43C65)C2)C1` (stereo not shown) [Example 14, 4-Desacetyl VLB C-3 N^2-(5-[(2-carboxyethyl)amino]-1-methyl-5-oxopentyl)carboxhydrazide], the pKa in “pKa” (setting [7]) is 5.7; in “pKa” (setting [6]), 6.7; in the data set “pKa” (setting [8]), 7.9. Take `CCC1(O)CC2CN(CCc3c([nH]c4ccccc34)C(C(=O)OC)(c3cc4c(cc3OC)N(C)C3C(O)(C(=O)NNC(C)CCCC(=O)NCCC(=O)O)C(O)C5(CC)C=CCN6CCC43C65)C2)C1` (stereo not shown) [Example 15, 4-Desacetyl VLB C-3 N^2-(5-[(2-carboxyethyl)amino]1-methyl-5-oxopentyl)carboxhydrazide sulfate salt]: the IC50 in data set [2] came to 0.046 µg/mL. `CCC1(O)CC2CN(CCc3c([nH]c4ccccc34)C(C(=O)OC)(c3cc4c(cc3OC)N(C)C3C(O)(C(=O)NNC(C)CCCCC(=O)NCCC(=O)OC)C(O)C5(CC)C=CCN6CCC43C65)C2)C1` (stereo not shown) [Example 30, 4-Desacetyl VLB C-3 N^2-(6-[(3-methoxy-3-oxopropyl)amino]-1-methyl-6-oxohexyl)carboxhydrazide]: the pKa came out at 5.4 in “pKa” (setting [5]) and 7.5 in “pKa” (solvent not given, read-out: pKa (second value)).

With `CC[C@]1(O)C[C@@H]2CN(CCc3c([nH]c4ccccc34)[C@@](C(=O)OC)(c3cc4c(cc3OC)N(C)[C@H]3[C@@](O)(C(=O)OC)[C@H](OC(C)=O)[C@]5(CC)C=CCN6CC[C@]43[C@@H]65)C2)C1` [VLB, vincaleukoblastine], in data set [1], the “found active in the treatment” value is given as “active”. With `CCC1CC2CN(CCc3c([nH]c4ccccc34)C(C(=O)OC)(c3cc4c(cc3OC)N(C)C3C(O)(C(=O)OC)C(OC(C)=O)C5(CC)C=CCN6CCC43C65)C2)C1` (stereo not shown) [deoxy VLB "A"], the “found active in the treatment” value in data set [1] is “active”. As to `CCC1(O)CN2CCc3c([nH]c4ccccc34)C(C(=O)OC)(c3cc4c(cc3OC)N(C)C3C(O)(C(=O)OC)C(OC(C)=O)C5(CC)C=CCN6CCC43C65)CC(O)(C2)C1` (stereo not shown) [leurocolombine], in data set [1], the “found active in the treatment” value is “active”. In the case of `CC[C@]12CN3CCc4c([nH]c5ccccc45)[C@@](C(=O)OC)(c4cc5c(cc4OC)N(C=O)[C@H]4[C@@](O)(C(=O)OC)[C@H](OC(C)=O)[C@]6(CC)C=CCN7CC[C@]54[C@@H]76)C[C@@H](C3)[C@H]1O2` [leuroformine], the “found active in the treatment” value in data set [1] was “active”.

For the molecule `CC[C@]12CN3CCc4c([nH]c5ccccc45)[C@@](C(=O)OC)(c4cc5c(cc4OC)N(C)[C@H]4[C@@](O)(C(=O)OC)[C@H](OC(C)=O)[C@]6(CC)C=CCN7CC[C@]54[C@@H]76)C[C@H](C3)[C@H]1O2` [leurosine], the “found active in the treatment” value in data set [1] was “active”. `CCC1(O)CN2CCc3c([nH]c4ccccc34)C(C(=O)OC)(c3cc4c(cc3OC)N(C)C3C(O)(C(=O)OC)C(OC(C)=O)C5(CC)C=CCN6CCC43C65)CC(C2)C1O` (stereo not shown) [vincadioline]: the “found active in the treatment” value in data set [1] is “active”. As for `CC[C@]1(O)C[C@H]2CN(CCc3c([nH]c4ccccc34)[C@@](C(=O)OC)(c3cc4c(cc3OC)N(C=O)[C@H]3[C@@](O)(C(=O)OC)[C@H](OC(C)=O)[C@]5(CC)C=CCN6CC[C@]43[C@@H]65)C2)C1` [vincristine, leurocristine], in data set [1], the “found active in the treatment” value was “active”. leurosidine: in data set [1], the “found active in the treatment” value is recorded as “active”.
